{"source": "patent US20190151274A1", "about": "“COMPOUND FOR USE IN THE TREATMENT OF A BLOOD VESSEL DISEASE” (Universitaet Potsdam, priority 2017, published 2019)", "system": "ALK1 mutant zebrafish", "experiment": "Treatment of ALK1 mutant zebrafish, microscopic images of the lateral dorsal aorta", "type": "in vivo", "conditions": "0.3 μM ATRA, 24-51 hours after insemination; control 0.1% DMSO; FIG. 5", "procedure": "The zebrafish ALK1 mutant is in a gene that is defective in some patients that suffer from HHT (hereditary hemorrhagic telangiectasia). The ALK1 mutant phenotype is an enlarged lateral dorsal aorta (LDA).\nThe treatment with the different active ingredients took place, between 24-51 hours after insemination of zebrafish eggs. The treatment was performed with 0.1% DMSO (first row) and 0.3 μM ATRA (second row).", "data": [{"smiles": "CC1=C(/C=C/C(C)=C/C=C/C(C)=C/C(=O)O)C(C)(C)CCC1", "note": "[ATRA, all-trans retinoic acid]", "values": [{"measurement": "overgrowth of the aorta (enlarged lateral dorsal aorta) in the ALK1 mutant", "value": "suppressed"}]}]}
